# Measured values reported in PubChem BioAssay (NCI).
#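 Values below derive from 48-hour exposures of cells grown in 96-well plates, with endpoints linearly interpolated between the two concentrations bracketing the appropriate inhibition level. GI50 is the concentration that inhibits growth by half. TGI is the concentration that stops growth completely.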
# Legend:
# Assay in all cases: NCI tumour cell line growth inhibition, 48 h
# MCF7 breast = tested on: MCF7 breast
# SNB-75 CNS = tested on: SNB-75 CNS
# MOLT-4 leukemia = tested on: MOLT-4 leukemia
# SK-MEL-2 melanoma = tested on: SK-MEL-2 melanoma
# K-562 leukemia = tested on: K-562 leukemia
# MALME-3M melanoma = tested on: MALME-3M melanoma
# MDA-MB-468 breast = tested on: MDA-MB-468 breast
# COLO 205 colon = tested on: COLO 205 colon
# SF-268 CNS = tested on: SF-268 CNS
# RXF 393 renal = tested on: RXF 393 renal
# CAKI-1 renal = tested on: CAKI-1 renal
# UACC-257 melanoma = tested on: UACC-257 melanoma
# RPMI-8226 leukemia = tested on: RPMI-8226 leukemia
# SF-539 CNS = tested on: SF-539 CNS
# SN12C renal = tested on: SN12C renal
# SK-MEL-5 melanoma = tested on: SK-MEL-5 melanoma
# HCC-2998 colon = tested on: HCC-2998 colon
# A498 renal = tested on: A498 renal
# IGROV1 ovarian = tested on: IGROV1 ovarian
# DU-145 prostate = tested on: DU-145 prostate
# NCI-H226 lung = tested on: NCI-H226 lung
# OVCAR-5 ovarian = tested on: OVCAR-5 ovarian
# HOP-92 NSCLC = tested on: HOP-92 NSCLC
# HOP-62 NSCLC = tested on: HOP-62 NSCLC
# MDA-MB-435 = tested on: MDA-MB-435
# ACHN renal = tested on: ACHN renal
# HCT-15 colon = tested on: HCT-15 colon
# SK-MEL-28 melanoma = tested on: SK-MEL-28 melanoma
# UO-31 renal = tested on: UO-31 renal
smiles,measurement,setting,value
Cc1ccc(C(=O)Nc2cc(-n3ccnc3C)cc(C(F)(F)F)c2)cc1C#Cc1cnc2cccnn12,GI50,MCF7 breast,5.06 µM
same,TGI,MCF7 breast,> 29.3 µM
same,GI50,SNB-75 CNS,2.98 µM
same,TGI,SNB-75 CNS,8.74 µM
same,GI50,MOLT-4 leukemia,2.42 µM
same,TGI,MOLT-4 leukemia,> 29.3 µM
same,GI50,SK-MEL-2 melanoma,0.84 µM
same,TGI,SK-MEL-2 melanoma,4.62 µM
same,GI50,K-562 leukemia,0.00293 µM
same,TGI,K-562 leukemia,> 29.3 µM
same,GI50,MALME-3M melanoma,0.25 µM
same,TGI,MALME-3M melanoma,1.73 µM
same,GI50,MDA-MB-468 breast,6.89 µM
same,TGI,MDA-MB-468 breast,19.7 µM
same,GI50,COLO 205 colon,1.7 µM
same,TGI,COLO 205 colon,15.6 µM
same,GI50,SF-268 CNS,4 µM
same,TGI,SF-268 CNS,16.4 µM
same,GI50,RXF 393 renal,1.64 µM
same,TGI,RXF 393 renal,6.11 µM
same,GI50,CAKI-1 renal,1.76 µM
same,TGI,CAKI-1 renal,6.52 µM
same,GI50,UACC-257 melanoma,1.78 µM
same,TGI,UACC-257 melanoma,8.74 µM
same,GI50,RPMI-8226 leukemia,1.27 µM
same,TGI,RPMI-8226 leukemia,15 µM
same,GI50,SF-539 CNS,0.916 µM
same,TGI,SF-539 CNS,4 µM
same,GI50,SN12C renal,0.948 µM
same,TGI,SN12C renal,5.97 µM
same,GI50,SK-MEL-5 melanoma,3.33 µM
same,TGI,SK-MEL-5 melanoma,8.81 µM
same,GI50,HCC-2998 colon,2.55 µM
same,TGI,HCC-2998 colon,11 µM
same,GI50,A498 renal,3.26 µM
same,TGI,A498 renal,9.74 µM
same,GI50,IGROV1 ovarian,2.62 µM
same,TGI,IGROV1 ovarian,23.2 µM
same,GI50,DU-145 prostate,5.23 µM
same,TGI,DU-145 prostate,23.1 µM
same,GI50,NCI-H226 lung,1.23 µM
same,TGI,NCI-H226 lung,6.47 µM
same,GI50,OVCAR-5 ovarian,1.27 µM
same,TGI,OVCAR-5 ovarian,8.91 µM
same,GI50,HOP-92 NSCLC,0.918 µM
same,TGI,HOP-92 NSCLC,4.61 µM
same,GI50,HOP-62 NSCLC,1.88 µM
same,TGI,HOP-62 NSCLC,9.67 µM
same,GI50,MDA-MB-435,3.07 µM
same,TGI,MDA-MB-435,14.7 µM
same,GI50,ACHN renal,2.49 µM
same,TGI,ACHN renal,6.69 µM
same,GI50,HCT-15 colon,2.44 µM
same,TGI,HCT-15 colon,> 29.3 µM
same,GI50,SK-MEL-28 melanoma,0.898 µM
same,TGI,SK-MEL-28 melanoma,4.47 µM
same,GI50,UO-31 renal,1.13 µM
same,TGI,UO-31 renal,6.17 µM
